ChEMBL document CHEMBL5303764, “Data for DCP probe BI-3812” (2023)
Active and inactive are the calls of the source. No cut-off for these calls is given here.

Experiments:
[1] = target: Leucine-rich repeat serine/threonine-protein kinase 2 (Homo sapiens) (UniProt Q5S007); assay: LRRK2 Invitrogen Lab (UK) kinase screen (BI); conditions: Compound concentration 1.0 uM
[2] = target: Alpha-1A adrenergic receptor (Homo sapiens) (UniProt P35348); assay: ALPHA1AH_ANTAG Eurofins SafetyScreen44 (BI); conditions: filed as antagonist, Compound concentration 10.0 uM
[3] = target: Alpha-1B adrenergic receptor (Homo sapiens) (UniProt P35368); conditions: Compound concentration 10.0 uM
Sequence of Alpha-1B adrenergic receptor (Homo sapiens) (P35368 whole entry): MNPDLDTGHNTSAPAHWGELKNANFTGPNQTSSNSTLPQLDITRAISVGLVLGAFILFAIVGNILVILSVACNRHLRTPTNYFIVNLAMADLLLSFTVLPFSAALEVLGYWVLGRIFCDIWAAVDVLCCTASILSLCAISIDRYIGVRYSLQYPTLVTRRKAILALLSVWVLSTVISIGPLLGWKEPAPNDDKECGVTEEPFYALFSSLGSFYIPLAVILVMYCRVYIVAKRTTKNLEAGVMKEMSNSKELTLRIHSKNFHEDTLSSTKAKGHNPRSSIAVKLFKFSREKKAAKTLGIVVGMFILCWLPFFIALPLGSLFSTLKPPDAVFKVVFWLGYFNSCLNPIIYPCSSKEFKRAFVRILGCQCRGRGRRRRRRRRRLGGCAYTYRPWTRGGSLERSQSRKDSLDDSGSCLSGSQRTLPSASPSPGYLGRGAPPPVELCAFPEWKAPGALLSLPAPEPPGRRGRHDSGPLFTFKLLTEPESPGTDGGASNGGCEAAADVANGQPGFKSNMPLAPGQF

[4] = target: Cannabinoid receptor 1 (Homo sapiens) (UniProt P21554); assay: CB1(HU)_AGON Eurofins SafetyScreen44 (BI); conditions: filed as agonist, Compound concentration 10.0 uM
[5] = target: Muscarinic acetylcholine receptor M1 (Homo sapiens) (UniProt P11229); conditions: Compound concentration 10.0 uM
Sequence of Muscarinic acetylcholine receptor M1 (Homo sapiens) (P11229 whole entry): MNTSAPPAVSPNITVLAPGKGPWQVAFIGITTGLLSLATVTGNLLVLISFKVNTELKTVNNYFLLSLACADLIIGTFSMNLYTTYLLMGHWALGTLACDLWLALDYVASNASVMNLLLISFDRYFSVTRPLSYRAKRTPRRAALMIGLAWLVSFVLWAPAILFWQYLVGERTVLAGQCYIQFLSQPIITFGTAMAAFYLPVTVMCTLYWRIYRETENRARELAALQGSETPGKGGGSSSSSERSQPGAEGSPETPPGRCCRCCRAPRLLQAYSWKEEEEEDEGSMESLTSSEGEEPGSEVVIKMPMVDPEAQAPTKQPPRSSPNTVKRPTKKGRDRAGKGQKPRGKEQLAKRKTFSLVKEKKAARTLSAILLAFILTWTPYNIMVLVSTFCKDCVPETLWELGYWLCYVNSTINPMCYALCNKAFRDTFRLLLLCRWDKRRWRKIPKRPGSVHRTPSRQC

[6] = target: Proto-oncogene tyrosine-protein kinase Src (Homo sapiens) (UniProt P12931); assay: SRC Invitrogen Lab (UK) kinase screen (BI); conditions: Compound concentration 1.0 uM
[7] = target: Histamine H3 receptor (Homo sapiens) (UniProt Q9Y5N1); conditions: Compound concentration 10.0 uM
Sequence of Histamine H3 receptor (Homo sapiens) (Q9Y5N1 whole entry): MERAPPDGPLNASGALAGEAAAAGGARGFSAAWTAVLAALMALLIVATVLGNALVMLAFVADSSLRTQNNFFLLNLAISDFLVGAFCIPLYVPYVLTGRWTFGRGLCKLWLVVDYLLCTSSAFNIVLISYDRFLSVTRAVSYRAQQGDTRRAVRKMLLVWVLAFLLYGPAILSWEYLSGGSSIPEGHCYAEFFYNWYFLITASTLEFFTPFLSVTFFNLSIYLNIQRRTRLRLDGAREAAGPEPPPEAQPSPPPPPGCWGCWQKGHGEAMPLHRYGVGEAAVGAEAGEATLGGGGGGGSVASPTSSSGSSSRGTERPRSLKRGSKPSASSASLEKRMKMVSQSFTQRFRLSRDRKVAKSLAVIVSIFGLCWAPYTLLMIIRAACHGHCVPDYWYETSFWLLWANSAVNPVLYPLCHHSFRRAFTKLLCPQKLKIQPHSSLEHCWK

[8] = target: Serine/threonine-protein kinase Nek1 (Homo sapiens) (UniProt Q96PY6); assay: NEK1 Invitrogen Lab (UK) kinase screen (BI); conditions: Compound concentration 1.0 uM
[9] = target: voltage-gated Na+ channel (site 2) (Rattus norvegicus, UniProt F1LQQ7+O08562+O88420+O88457+P04774+P04775+P08104+P15389+P15390+Q62968); assay: NA+/SITE2/R Eurofins SafetyScreen44 (BI); assay type: protein assay; conditions: rat brain, probe [3H]batrachotoxinin, compound concentration 10 uM, read-out: % Ctrl
[10] = target: Histamine H2 receptor (Homo sapiens) (UniProt P25021); assay: H2/APT/HS Eurofins SafetyScreen44 (BI); conditions: filed as antagonist, Compound concentration 10.0 uM
Sequence of Histamine H2 receptor (Homo sapiens) (P25021 whole entry): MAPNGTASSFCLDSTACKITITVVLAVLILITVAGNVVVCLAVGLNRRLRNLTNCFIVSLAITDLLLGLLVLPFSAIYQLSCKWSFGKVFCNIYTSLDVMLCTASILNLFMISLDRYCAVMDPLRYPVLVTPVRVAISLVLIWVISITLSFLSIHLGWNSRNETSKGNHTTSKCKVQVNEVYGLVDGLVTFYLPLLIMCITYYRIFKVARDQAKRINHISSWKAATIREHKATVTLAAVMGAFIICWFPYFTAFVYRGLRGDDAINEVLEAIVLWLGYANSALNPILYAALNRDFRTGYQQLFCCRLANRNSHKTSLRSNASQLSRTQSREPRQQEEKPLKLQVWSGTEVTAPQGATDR

[11] = target: Mitogen-activated protein kinase kinase kinase 8 (Homo sapiens) (UniProt P41279); assay: MAP3K8 Invitrogen Lab (UK) kinase screen (BI); conditions: Compound concentration 1.0 uM
[12] = target: Tyrosine-protein kinase ITK/TSK (Homo sapiens) (UniProt Q08881); assay: ITK Invitrogen Lab (UK) kinase screen (BI); conditions: Compound concentration 1.0 uM
[13] = target: D(3) dopamine receptor (Homo sapiens) (UniProt P35462); conditions: Compound concentration 10.0 uM
Sequence of D(3) dopamine receptor (Homo sapiens) (P35462 whole entry, the tested form may be a part): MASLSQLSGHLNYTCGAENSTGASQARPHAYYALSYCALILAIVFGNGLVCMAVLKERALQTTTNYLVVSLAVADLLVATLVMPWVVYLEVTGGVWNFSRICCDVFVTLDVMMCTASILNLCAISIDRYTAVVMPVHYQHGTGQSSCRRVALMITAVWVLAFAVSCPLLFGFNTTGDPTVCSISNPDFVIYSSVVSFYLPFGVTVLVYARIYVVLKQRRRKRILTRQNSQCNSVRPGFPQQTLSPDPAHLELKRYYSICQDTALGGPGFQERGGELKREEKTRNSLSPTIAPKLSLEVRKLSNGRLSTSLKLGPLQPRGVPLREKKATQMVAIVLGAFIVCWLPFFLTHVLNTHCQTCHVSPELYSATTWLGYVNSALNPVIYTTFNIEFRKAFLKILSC

[14] = target: Zinc finger and BTB domain-containing protein 32 (Homo sapiens, UniProt Q9Y2Y4); assay: SPR (ZBTB32), Ontario institute for cancer research
[15] = target: Myosin light chain kinase 2, skeletal/cardiac muscle (Homo sapiens) (UniProt Q9H1R3); assay: MYLK2 Invitrogen Lab (UK) kinase screen (BI); conditions: Compound concentration 1.0 uM
[16] = target: BDNF/NT-3 growth factors receptor (Homo sapiens) (UniProt Q16620); assay: NTRK2 Invitrogen Lab (UK) kinase screen (BI); conditions: Compound concentration 1.0 uM
[17] = target: D(2) dopamine receptor (Homo sapiens) (UniProt P14416); conditions: Compound concentration 10.0 uM
Sequence of D(2) dopamine receptor (Homo sapiens) (P14416 whole entry): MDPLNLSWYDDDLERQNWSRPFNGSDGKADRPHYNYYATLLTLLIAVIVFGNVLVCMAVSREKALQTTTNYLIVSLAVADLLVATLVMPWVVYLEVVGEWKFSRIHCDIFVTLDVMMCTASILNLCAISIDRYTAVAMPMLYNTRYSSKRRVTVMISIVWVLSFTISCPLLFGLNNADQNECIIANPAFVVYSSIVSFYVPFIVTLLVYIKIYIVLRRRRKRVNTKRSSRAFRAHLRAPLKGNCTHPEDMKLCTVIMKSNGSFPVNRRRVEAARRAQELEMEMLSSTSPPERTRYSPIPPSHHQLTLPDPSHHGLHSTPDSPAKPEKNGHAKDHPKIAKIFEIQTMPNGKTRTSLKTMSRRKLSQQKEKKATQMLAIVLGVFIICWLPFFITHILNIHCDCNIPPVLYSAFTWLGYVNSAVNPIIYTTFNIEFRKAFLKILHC

[18] = target: 5-hydroxytryptamine receptor 5A (Homo sapiens) (UniProt P47898); conditions: Compound concentration 10.0 uM
Sequence of 5-hydroxytryptamine receptor 5A (Homo sapiens) (P47898 whole entry): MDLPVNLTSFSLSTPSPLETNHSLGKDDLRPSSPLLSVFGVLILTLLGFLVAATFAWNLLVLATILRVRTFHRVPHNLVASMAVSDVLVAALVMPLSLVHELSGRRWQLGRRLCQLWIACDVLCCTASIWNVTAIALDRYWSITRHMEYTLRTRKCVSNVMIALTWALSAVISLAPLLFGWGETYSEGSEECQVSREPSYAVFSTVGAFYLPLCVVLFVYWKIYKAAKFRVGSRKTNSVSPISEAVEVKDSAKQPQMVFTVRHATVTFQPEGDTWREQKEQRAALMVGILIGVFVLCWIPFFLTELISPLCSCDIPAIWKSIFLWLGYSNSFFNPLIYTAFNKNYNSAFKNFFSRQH

[19] = target: Muscarinic acetylcholine receptor M2 (Homo sapiens) (UniProt P08172); conditions: Compound concentration 10.0 uM
Sequence of Muscarinic acetylcholine receptor M2 (Homo sapiens) (P08172 whole entry): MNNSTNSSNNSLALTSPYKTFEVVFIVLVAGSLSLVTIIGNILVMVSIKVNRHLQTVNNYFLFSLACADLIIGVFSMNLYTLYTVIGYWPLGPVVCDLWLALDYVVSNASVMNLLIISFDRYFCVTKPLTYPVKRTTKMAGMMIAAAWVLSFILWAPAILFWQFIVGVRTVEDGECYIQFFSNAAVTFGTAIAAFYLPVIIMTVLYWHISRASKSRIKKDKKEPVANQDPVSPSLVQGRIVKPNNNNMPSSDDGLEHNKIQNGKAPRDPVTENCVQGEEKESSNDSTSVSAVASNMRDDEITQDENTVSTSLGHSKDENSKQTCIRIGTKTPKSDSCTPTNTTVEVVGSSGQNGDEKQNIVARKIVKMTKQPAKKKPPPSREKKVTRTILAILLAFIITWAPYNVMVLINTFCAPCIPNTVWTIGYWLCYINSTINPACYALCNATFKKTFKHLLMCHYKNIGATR

[20] = target: B-cell lymphoma 6 protein (Homo sapiens, UniProt P41182); assay: SPR (BCL6), Ontario institute for cancer research
[21] = target: GABA-A receptor; anion channel (Rattus norvegicus) (UniProt O09028+P15431+P18506+P18508+P19969+P20236+P23574+P23576+P28471+P28473+P30191+P62813+P63079+P63138+Q91ZM7+Q9ES14); assay: BZD/CENTR/R Eurofins SafetyScreen44 (BI); assay type: protein-complex assay; conditions: Compound concentration 10.0 uM
[22] = target: Alpha-2C adrenergic receptor (Homo sapiens) (UniProt P18825); conditions: Compound concentration 10.0 uM
Sequence of Alpha-2C adrenergic receptor (Homo sapiens) (P18825 whole entry): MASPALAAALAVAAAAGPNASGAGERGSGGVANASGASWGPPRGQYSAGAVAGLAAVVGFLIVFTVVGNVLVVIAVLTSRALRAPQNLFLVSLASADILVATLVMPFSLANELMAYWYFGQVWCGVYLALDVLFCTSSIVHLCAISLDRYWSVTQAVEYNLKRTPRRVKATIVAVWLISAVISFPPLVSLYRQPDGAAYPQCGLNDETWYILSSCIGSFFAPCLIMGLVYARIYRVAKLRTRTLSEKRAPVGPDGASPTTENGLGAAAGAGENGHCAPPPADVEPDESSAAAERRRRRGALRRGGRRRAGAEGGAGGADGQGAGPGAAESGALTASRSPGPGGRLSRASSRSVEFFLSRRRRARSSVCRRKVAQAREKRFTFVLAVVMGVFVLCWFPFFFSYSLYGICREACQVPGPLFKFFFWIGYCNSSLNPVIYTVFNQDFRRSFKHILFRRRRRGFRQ

[23] = target: Prostaglandin G/H synthase 1 (Homo sapiens) (UniProt P23219); assay: COX-1 Eurofins SafetyScreen44 (BI); conditions: Compound concentration 10.0 uM
[24] = target: Histamine H2 receptor (Homo sapiens) (UniProt P25021); conditions: Compound concentration 10.0 uM
[25] = target: Dual specificity mitogen-activated protein kinase kinase 2 (Homo sapiens) (UniProt P36507); assay: MAP2K2 Invitrogen Lab (UK) kinase screen (BI); conditions: Compound concentration 1.0 uM
[26] = target: 3',5'-cyclic-AMP phosphodiesterase 4D (Homo sapiens) (UniProt Q08499); assay: PDE4D2 Eurofins SafetyScreen44 (BI); conditions: Compound concentration 10.0 uM
[27] = target: MAP kinase-activated protein kinase 3 (Homo sapiens) (UniProt Q16644); assay: MAPKAPK3 Invitrogen Lab (UK) kinase screen (BI); conditions: Compound concentration 1.0 uM
[28] = target: Mu-type opioid receptor (Homo sapiens) (UniProt P35372); conditions: Compound concentration 10.0 uM
[29] = target: 5-hydroxytryptamine receptor 1A (Homo sapiens) (UniProt P08908); assay: 5HT1A/H Eurofins SafetyScreen44 (BI); conditions: Compound concentration 10.0 uM
[30] = target: Serine/threonine-protein kinase Chk1 (Homo sapiens) (UniProt O14757); assay: CHEK1 Invitrogen Lab (UK) kinase screen (BI); conditions: Compound concentration 1.0 uM
[31] = target: Serine/threonine-protein kinase PLK1 (Homo sapiens) (UniProt P53350); assay: PLK1 Invitrogen Lab (UK) kinase screen (BI); conditions: Compound concentration 1.0 uM
[32] = target: Neuronal acetylcholine receptor; alpha4/beta2 (Homo sapiens) (UniProt P17787+P43681); assay: N_NEURO_A4B2 Eurofins SafetyScreen44 (BI); assay type: protein-complex assay; conditions: filed as agonist, Compound concentration 10.0 uM
[33] = target: Cyclin-dependent kinase 2/cyclin A (Homo sapiens) (UniProt P24941+P20248+P78396); assay: CDK2/CYCLINA Invitrogen Lab (UK) kinase screen (BI); assay type: protein-complex assay; conditions: Compound concentration 1.0 uM
[34] = target: Vasopressin V1a receptor (Homo sapiens) (UniProt P37288); assay: V1A/HUM Eurofins SafetyScreen44 (BI); conditions: Compound concentration 10.0 uM
[35] = target: Delta-type opioid receptor (Homo sapiens) (UniProt P41143); conditions: Compound concentration 10.0 uM
Sequence of Delta-type opioid receptor (Homo sapiens) (P41143 whole entry): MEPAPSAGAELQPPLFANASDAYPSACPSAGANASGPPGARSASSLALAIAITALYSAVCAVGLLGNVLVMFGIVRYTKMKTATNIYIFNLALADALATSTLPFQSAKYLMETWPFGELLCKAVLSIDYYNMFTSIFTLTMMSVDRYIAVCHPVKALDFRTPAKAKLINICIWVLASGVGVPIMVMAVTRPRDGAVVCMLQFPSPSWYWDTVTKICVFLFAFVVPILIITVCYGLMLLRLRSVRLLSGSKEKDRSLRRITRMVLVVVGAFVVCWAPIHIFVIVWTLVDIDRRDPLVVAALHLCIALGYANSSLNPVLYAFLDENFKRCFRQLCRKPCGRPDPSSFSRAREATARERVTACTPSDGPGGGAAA

[36] = target: Beta-2 adrenergic receptor (Homo sapiens) (UniProt P07550); assay: BETA2/HUM Eurofins SafetyScreen44 (BI); conditions: filed as antagonist, Compound concentration 10.0 uM
[37] = target: Androgen receptor (Homo sapiens) (UniProt P10275); assay: ANDROGEN/H Eurofins SafetyScreen44 (BI); conditions: Compound concentration 10.0 uM
[38] = target: Sodium-dependent noradrenaline transporter (Homo sapiens) (UniProt P23975); conditions: Compound concentration 10.0 uM
Sequence of Sodium-dependent noradrenaline transporter (Homo sapiens) (P23975 whole entry): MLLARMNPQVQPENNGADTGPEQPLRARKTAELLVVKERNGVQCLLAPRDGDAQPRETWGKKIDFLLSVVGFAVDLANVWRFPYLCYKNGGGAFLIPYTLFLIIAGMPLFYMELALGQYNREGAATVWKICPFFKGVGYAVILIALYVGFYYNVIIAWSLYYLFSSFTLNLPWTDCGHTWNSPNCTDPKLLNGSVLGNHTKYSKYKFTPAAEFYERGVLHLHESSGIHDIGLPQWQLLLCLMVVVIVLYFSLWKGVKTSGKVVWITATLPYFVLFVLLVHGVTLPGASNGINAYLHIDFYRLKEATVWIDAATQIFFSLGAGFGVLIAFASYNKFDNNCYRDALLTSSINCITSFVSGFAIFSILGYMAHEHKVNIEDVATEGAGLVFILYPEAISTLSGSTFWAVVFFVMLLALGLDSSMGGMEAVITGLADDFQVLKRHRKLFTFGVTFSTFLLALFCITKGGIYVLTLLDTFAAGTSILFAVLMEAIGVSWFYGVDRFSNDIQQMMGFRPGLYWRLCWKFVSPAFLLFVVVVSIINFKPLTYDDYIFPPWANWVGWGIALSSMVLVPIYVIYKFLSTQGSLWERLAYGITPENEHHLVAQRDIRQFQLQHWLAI

[39] = target: Ephrin type-A receptor 2 (Homo sapiens) (UniProt P29317); assay: EPHA2 Invitrogen Lab (UK) kinase screen (BI); conditions: Compound concentration 1.0 uM
[40] = target: AMP-activated protein kinase (AMPK) alpha-1/beta-1/gamma-1 (Homo sapiens) (UniProt P54619+Q9Y478+Q13131); assay: AMPK A1B1G1 Invitrogen Lab (UK) kinase screen (BI); assay type: protein-complex assay; conditions: Compound concentration 1.0 uM
[41] = target: Serine/threonine-protein kinase PAK 4 (Homo sapiens) (UniProt O96013); assay: PAK4 Invitrogen Lab (UK) kinase screen (BI); conditions: Compound concentration 1.0 uM

Question: How did the residual activity [1] turn out when `CNC(=O)COc1cc2cc(Nc3nc(N4CCC(C(=O)N(C)C)CC4)ncc3Cl)cc(OC)c2n(C)c1=O` was run?
Answer: 111%

Question: What about the residual activity [2] of the same compound?
Answer: 99%

Question: And the inhibition [3]?
Answer: 9.69%

Question: And the residual activity [4]?
Answer: 123%

Question: What about the inhibition [5] of the same compound?
Answer: 12.9%

Question: What about the residual activity [6] of the same compound?
Answer: 88%

Question: What about the inhibition [7] of the same compound?
Answer: 20.9%

Question: What about the residual activity [8] of the same compound?
Answer: 98%

Question: What about the activity at 10 µM [9] of the same compound?
Answer: 84% (not active)

Question: What about the residual activity [10] of the same compound?
Answer: 104%

Question: What about the residual activity [11] of the same compound?
Answer: 86%

Question: What about the residual activity [12] of the same compound?
Answer: 83%

Question: What about the inhibition [13] of the same compound?
Answer: 14.6%

Question: And the Kd [14]?
Answer: No binding

Question: And the residual activity [15]?
Answer: 101%

Question: What about the residual activity [16] of the same compound?
Answer: 88%

Question: And the inhibition [17]?
Answer: 1.86%

Question: What about the inhibition [18] of the same compound?
Answer: 12.9%

Question: And the inhibition [19]?
Answer: 19.5%

Question: What about the Kd [20] of the same compound?
Answer: 2.57 nM (active)

Question: And the residual activity [21]?
Answer: 125%

Question: What about the inhibition [22] of the same compound?
Answer: 3.4%

Question: And the residual activity [23]?
Answer: 118%

Question: What about the inhibition [24] of the same compound?
Answer: 9.74%

Question: And the residual activity [25]?
Answer: 95%

Question: What about the residual activity [26] of the same compound?
Answer: 121%

Question: And the residual activity [27]?
Answer: 99%

Question: And the inhibition [28]?
Answer: 17.4%

Question: What about the residual activity [29] of the same compound?
Answer: 89%

Question: What about the residual activity [30] of the same compound?
Answer: 91%

Question: And the residual activity [31]?
Answer: 100%

Question: What about the residual activity [32] of the same compound?
Answer: 98%

Question: What about the residual activity [33] of the same compound?
Answer: 88%

Question: And the residual activity [34]?
Answer: 101%

Question: What about the inhibition [35] of the same compound?
Answer: 17.6%

Question: What about the residual activity [36] of the same compound?
Answer: 92%

Question: What about the residual activity [37] of the same compound?
Answer: 99%

Question: What about the inhibition [38] of the same compound?
Answer: 4.8%

Question: What about the residual activity [39] of the same compound?
Answer: 99%

Question: And the residual activity [40]?
Answer: 98%

Question: What about the residual activity [41] of the same compound?
Answer: 82%
